Assay results as given in US10335380B2, “Compounds suitable for the treatment of myeloproliferative neoplasms as well as methods for the diagnosis/prognosis of myeloproliferative neoplasms” (CNIC Fundacion Centro Nacional De investigaciones …, priority 2013, dated 2019).

Columns and labels:
[1] = test system: mice transplanted with MPN BM cells (JAK2-V617F); experiment: In vivo pharmacological treatments of mice transplanted with MPN (Mx1-cre;JAK2-V617F) BM cells; design: species or system mouse
Description: In Mx1-cre; JAK2-V617F double-transgenic mice, expression of the human JAK2-V617F mutation is driven by the endogenous Jak2 promoter and can be conditionally expressed in haematopoietic cells upon Myxovirus resistance-1 (Mx1)-driven Cre recombinase activation by polyinosine-polycytosine (plpC). PlpC-induced transgenic mice and wild-type mice transplanted with BM cells from these mice develop progressive symptoms of PV19,20.
Age-matched, female wild-type C57BL/6J or Nes-gfp mice were used as recipients in bone marrow (BM) transplantation assays and for in vivo pharmacological treatments. […] Vehicle (saline solution) daily injections were performed in the same way. Unless indicated, treatment was initiated 4 weeks posttransplant, when animals evidenced peripheral blood signs of MPN. Mice were randomly distributed prior to treatment initiation, and disease development was monitored over time in peripheral blood samples, using an automated blood counter. […] The neuroprotective drug 4-methylcatechol (10 μg kg-1, i.p.) was injected once daily. The JAK inhibitor INCB018424 (S-Ruxilitinib, Abmole Bioscience) was administered by oral gavage (30 mg kg-1, twice per day separated 10-12 hours) in 0.5% hydroxypropylmethylcellulose (Sigma) after solubilisation in DMSO. The IL-1 receptor antagonist (Kineret, Sobi, Stockholm, Sweden) was administered by subcutaneous osmotic pumps (Alzet) infusing a continuous dosing of 40 mg kg-1 per day. Mice were sacrificed at different time points and subjected to complete necropsy; BM and spleen were analysed by histology and flow cytometry; femora and skull were used for immunostainings, and haematopoietic and stromal cells were additionally used for functional assays ex vivo.
BM cell extraction, flow cytometry and fluorescence-activated cell sorting For haematopoietic cell recovery, bones were crushed in a mortar, filtered through a 40-μm mesh to obtain single cell suspensions, and depleted of red blood cells by lysis in 0.15 M NH4Cl for 10 min at 4° C. Spleen samples were homogenised and filtered prior to lysis; blood samples were directly lysed. Cells (1-2×10^6 cells per sample) were incubated with the appropriate dilution (2-5 μg ml-1) of fluorescent antibody conjugates and 4′,6-diamidino-2-phenylindole (DAPI) for dead cell exclusion, and analysed on LSRFortessa flow cytometer (BD Biosciences, Franklin Lakes, N.J.) equipped with FACSDiva Software (BD Biosciences). […] Biotinylated antibodies were detected with fluorochrome-conjugated streptavidin (BD Biosciences). Phenotypic populations of HSC were defined as long-term haematopoietic stem cells (HSCs) (lin− Sca1+c-kit+ (LSK) CD34− Flt3−), short-term HSCs (LSK CD34+ Flt3−) and multipotent progenitors (MPP) (LSK CD34+ Flt3+).
Cells were filtered through a 40-μm mesh and erythrocytes were lysed as previously described. The resulting bone marrow-enriched cell suspensions were pelleted, washed and resuspended in PBS buffer containing 2% foetal calf serum (FCS) for further analyses. […] BM stromal CD45− CD31− Ter119− cells were further purified according to GFP fluorescence using a FACS Aria cell sorter (BD Bioscience). For the determination of apoptotic cells, samples were washed with PBS after surface antibody staining and subsequently stained with Annexin V-Pacific Blue and SYTOX AADvanced (Invitrogen, Life Technologies, Paisley, UK). For functional assays, cells were enriched by immunomagnetic depletion using biotinylated CD45 and Ter119. For immunophenotypic characterisation, total BM samples were studied by flow cytometry using the following additional antibodies: CD63 (NVG-2), CD105 (MJ7/18), CD140a (APA5), Vcam, CD51 (RMV-7), all from Biolegend; and CD90.2 from BD Biosciences.
Immunofluorescence staining of cryostat sections was performed. For whole mount staining of the calvaria, all incubation times were extended. The antibodies used were TH (Rabbit pAb, Millipore) and GFAP (Rabbit pAb, Dako).

[2] = cited from earlier work
[3] = molecular target: murine receptor (β3-adrenergic) (Mus musculus, UniProt P25962); details: cited from earlier work
[4] = test system: BM-derived Schwann cells; experiment: Co-culture of BM-derived Schwann cells with JAK2V617F+ BM LSK cells, apoptosis by TUNEL; type: cell-based, mouse; details: IL1ra 200 ng ml-1, 24 h co-culture
Method: For co-culture of BM-derived Schwann cells and MSCs with BM LSK cells from control and mutant mice, neonatal BM CD45− CD31− Ter119− Nes-GFP+ Pdgfrα−/+ cells containing Schwann cell precursors and MSCs, respectively (Isern J et al., submitted), were sorted and cultured under Schwann cell differentiation conditions, as previously described 34, or mesenchymal culture conditions, in MEMα supplemented with 10 ng ml-1 PDGFAB, 15% FBS. Both were co-cultured for 24 h with primary BM LSK cells isolated by FACS from control or mutant mice. Schwann cells derived from sorted GFP+ Pdgfrα− BM precursors were additionally incubated with IL1ra (200 ng ml-1) for the co-culture period. After 24 h of co-culture, haematopoietic cells were washed away and the remaining adherent Schwann cells were fixed and analysed for apoptosis by TUNEL.

[5] = test system: CD45+ haematopoietic cells from BM of Nes-gfp;Mx1-cre;JAK2-V617F mice and control littermates; experiment: Colony-forming units in culture (CFU-C) with drug added in vitro; type: cell-based, mouse; details: scored after one week in culture
Method: Colony-forming units in culture (CFU-C) assay was performed. […] Colonies of more than 50 cells were scored after 7 days of incubation at 37° C., 5% CO2, 20% O2 in a water-jacketed incubator. For CFU-F assays, BM CD45− Ter119− cells were plated into 6-well dishes and cultured in maintenance medium (α-MEM, 15% FCS with antibiotics). After 10-12 days in culture, adherent cells were fixed with 100% methanol and stained with Giemsa stain (Sigma) to reveal fibroblastic clusters. Colonies with more than 50 cells were scored as CFU-F.

[6] = IL1ra 40 mg kg-1 per day, subcutaneous osmotic pumps, 18 weeks

murine receptor (β3-adrenergic), sequence (P25962 whole entry): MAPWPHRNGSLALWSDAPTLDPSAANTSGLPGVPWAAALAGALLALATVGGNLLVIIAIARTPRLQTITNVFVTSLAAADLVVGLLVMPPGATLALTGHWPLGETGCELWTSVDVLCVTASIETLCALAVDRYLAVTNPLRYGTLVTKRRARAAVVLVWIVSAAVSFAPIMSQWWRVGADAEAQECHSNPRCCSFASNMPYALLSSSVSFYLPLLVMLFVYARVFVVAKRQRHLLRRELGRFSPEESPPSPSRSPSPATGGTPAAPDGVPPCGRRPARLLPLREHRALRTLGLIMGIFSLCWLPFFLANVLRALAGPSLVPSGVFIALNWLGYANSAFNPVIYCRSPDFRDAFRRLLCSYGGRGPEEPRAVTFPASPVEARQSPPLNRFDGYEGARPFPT

Compound: Nc1nc(CC(=O)Nc2ccc(CCNC[C@H](O)c3ccccc3)cc2)cs1 [Mirabegron]
- MPN progression ([1]; BRL37344 or Mirabegron 2 mg kg-1 i.p. twice a day): delays
- several MPN markers (blood counts) ([1]; Mirabegron 2 mg kg-1 i.p. twice a day, last two weeks, 8 weeks after transplantation, to lower extent than BRL37344): improved
- solubility [2]: poor
- affinity for the murine receptor [3]: relatively low

Compound: interleukin-1 receptor antagonist: IL-1 receptor antagonist (Kineret, Sobi, Stockholm, Sweden)
- BM MSC frequency [1, 6]: increased
- caspase-1 mRNA expression in haematopoietic progenitors [1, 6]: reduced
- platelet counts ([1]; IL1ra 40 mg kg-1 per day, subcutaneous osmotic pumps, 18 weeks, starting 2 weeks after transplant): reduced
- 3-fold higher apoptotic rate of Schwann cells co-cultured with JAK2V617F+ haematopoietic progenitors [4]: blocked

Compound: Cc1ccc(O)c(O)c1 [4-methylcatechol]
- incipient MPN signs (haematological parameters) ([1]; 8 weeks after transplantation, treatment for the last 4 weeks): improved
- mutant haematopoietic progenitor expansion ([1]; early treatment, 4 weeks, BRL37344 2 mg kg-1 twice a day, 4-methylcatechol 10 μg kg-1 once daily): prevented
- BM Schwann cells (Gfap immunostaining) ([1]; symptomatic MPN mice, 4-methylcatechol 10 μg kg-1 i.p. once daily over a month): preserved
- MPN-associated neutrophilia ([1]; symptomatic MPN mice, treatment started 4 weeks after transplantation, BRL37344 2 mg kg-1 i.p. twice a day, 4-methylcatechol 10 μg kg-1 i.p. once daily): prevented
- growth of cultured haematopoietic progenitors (CFU-C) [5]: neither 4-methylcatechol nor BRL37344 affected
